Article PMC4837090 (Nature chemical biology, 2016)

Assays:
[1] = test system: LNCaP cells; assay: in situ 13C,2H-PAHSA hydrolysis; assay type: cell-based, human; details: 5 μM, 4 h, then 2 μM 13C,2H-PAHSA 2 h
[2] = target: T1, hAIG1 (Homo sapiens, UniProt Q9NVV5); assay type: binding
T1 sequence (Q9NVV5 1-238): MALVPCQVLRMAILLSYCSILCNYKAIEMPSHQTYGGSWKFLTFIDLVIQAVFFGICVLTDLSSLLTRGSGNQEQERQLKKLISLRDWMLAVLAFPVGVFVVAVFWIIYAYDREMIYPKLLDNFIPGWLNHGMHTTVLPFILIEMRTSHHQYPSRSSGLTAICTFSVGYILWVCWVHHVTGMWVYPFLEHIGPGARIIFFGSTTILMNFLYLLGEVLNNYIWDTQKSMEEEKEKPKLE

## CCCCCCCCCCC[C@@H](C[C@@H]1OC(=O)[C@H]1CCCCCC)OC(=O)[C@H](CC(C)C)NC=O [THL, tetrahydrolipstatin]
[1]
  reduction in 13C16-PA and 2H19-HSA products (13C,2H-PAHSA hydrolysis) vs DMSO: negligible alterations
[2]
  inhibition of FP reactivity of AIG1: did not inhibit
